The source of these data is patent publication EP0880540B1, “17-BETA-CYCLOPROPYL(AMINO/OXY) 4-AZA STEROIDS AS ACTIVE INHIBITORS OF TESTOSTERONE 5-ALPHA-REDUCTASE AND C17-20-LYASE” (Aventis Pharmaceuticals Inc., priority 1996, dated 1997).

The target in experiment [1] is T1, cynomolgus monkey C17,20 lyase (Macaca fascicularis, UniProt Q2XVA1).
T1 construct: microsomal preparations of the enzyme from testicular tissue; from tissue; host or cells: cynomolgus monkey testes, microsomes
T1 sequence (Q2XVA1 1-508): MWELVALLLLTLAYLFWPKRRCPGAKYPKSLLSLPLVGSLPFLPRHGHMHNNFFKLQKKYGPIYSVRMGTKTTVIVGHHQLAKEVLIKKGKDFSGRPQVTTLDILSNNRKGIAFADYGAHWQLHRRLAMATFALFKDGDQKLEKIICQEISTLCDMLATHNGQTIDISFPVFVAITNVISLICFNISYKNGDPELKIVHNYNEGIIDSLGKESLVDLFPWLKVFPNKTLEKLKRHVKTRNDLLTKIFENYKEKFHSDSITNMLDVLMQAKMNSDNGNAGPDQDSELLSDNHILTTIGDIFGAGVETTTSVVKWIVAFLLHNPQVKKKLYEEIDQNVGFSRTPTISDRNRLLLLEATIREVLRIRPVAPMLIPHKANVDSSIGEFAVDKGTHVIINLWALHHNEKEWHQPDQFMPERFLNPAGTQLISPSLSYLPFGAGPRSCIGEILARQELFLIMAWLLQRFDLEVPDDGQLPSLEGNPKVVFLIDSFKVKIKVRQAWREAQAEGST
The experiment in a line: In vitro C17,20 lyase assay, testicular microsomes. Type of experiment: biochemical. To be noted: mean of duplicates. How it is done:
In vitro C17,20 lyase assays: Compounds were tested for inhibition of cynomolgus monkey C17,20 lyase in vitro using microsomal preparations of the enzyme from testicular tissue. Testes were removed from anesthetized animals and flash frozen in liquid nitrogen. Microsomes were isolated as described in Schatzman et al., Anal. Biochem. 175, 219-226 (1988). The compound to be tested was dissolved in dimethyl sulfoxide and diluted in 0.05 M potassium phosphate buffer, pH 7.4, to give the desired concentrations of test compound, in an amount which contributed 0.1% v/v DMSO to the total assay volume. Assays contained 0.05 M potassium phosphate buffer, pH 7.4, an NADPH regenerating system (1 mM NADPH, 5 mM glucose-6-phosphate, 1 IU/mL glucose-6-phosphate dehydrogenase), test compound, substrate and microsomal protein in a total volume of 0.2 mL. Control assays contained all components, including dimethyl sulfoxide, but not test ccmpound. All assays were performed in duplicate. The test compound was incubated with 20 to 62 µg/mL microsomal protein, buffer, and the NADPH regenerating system described above at 34°C for 0 or 40 minutes. Aliquots of 180 µL were then removed and assayed for enzyme activity by addition to 7-[^3H]-17α-hydroxypregnenolone (11.2 mCi/mmole; 0.2 µCi per assay) plus unlabeled 17α-hydroxypregnenolone dissolved in DMSO, contributing 2.5% v/v to the final assay mix, and phosphate buffer to give a total substrate concentration of 0.05 µM (=Km) per assay and subsequent incubation at 34°C for 6 minutes. Each assay was terminated by addition of 5 mL of chloroform:methanol (2:1). Carrier steroids representing substrates and produces (17α-hydroxypregnenolone, dehydroepiandrosterone, and androst-5-ene-3β,17β-diol) and 0.8 mL of distilled, deionized water were also added at this time. The steroids were extracted by the method of Moore and Wilson (Methods in Enzymol., eds. O. Malley, B.W. and Hardman, J.G. 36, 1975, pp. 466-474). The organic phase containing the steroids was evaporated using nitrogen gas, the residues dissolved in 18% tetrahydrofuran (v/v) in hexane, and the steroids were separated by HPLC on a Si60 (5 µm) column (250 x 4 mm) using a gradient of 18-22% tetrahydrofuran (v/v) in hexane. Radioactivity in the steroid peaks was measured using a Radiomatic® Model ES or Model A515 Flo-One® detector.
The enzyme activity for each assay was calculated from the percent conversion of substrate to products, and the results were expressed as percent inhibition of control. The following results were obtained, wherein the values indicated are the mean of duplicate determinations: Table 1: […]

A further experiment relates to Dunning H Tumor. As to the kind of experiment: Dunning H tumor growth in rats. The class given is in vivo, male Copenhagen rats. To be noted: MDL 105831 15 mg/kg/day PO, MDL 15910 50 mg/kg/day PO. An excerpt:
As described in J.T. Isaacs & D.S. Coffey, Cancer Res. 41:5070-5075 (1981); W.J. Ellis & J.T. Issacs, Cancer Res. 45:6041-6050 (1985); T.W. Bedding & A.V. Schally, The Prostate 6:219-232 (1985) and P.E. Juniewicz et al. The Prostate 18:105-115 (1991), male Copenhagen rats were obtained from HARLAN-SPRAGUE-DAWLEY Inc. (Indianapolis, IN), and were individually housed in suspended wire cages and provided laboratory rodent chow (Purina 5001 pellets, Purina Mills, St. Louis, MO) and deionized water ad libum. The rats were anesthetized using sodium pentobarbital and the hair was clipped from the back dorsal area. Tumors from donor Copenhagen rats were cut into fragments of 10 mm^3 and implanted subcutaneously (one site per rat) into the prepared dorsal area.
Animals were selected (105 days post implantation) for the treatment phase based on tumor size. Ten animals were anesthetized with sodium pentobarbital and bilaterally castrated. The remaining animals were assigned to treatment groups (ten per group) based on mean group tumor size. Animals were kept separate throughout the study. The tested compounds were prepared in solution or suspension in a lecithin vehicle (L-α-phosphatidylcholine type XV-E) containing methylparaben and propylparaben. All treatments were performed by oral gavage (per os) at 2 cc/kg each day of study. Tumor size and rat body weights were recorded every seven days over a period of 35 days. Twenty-four hours after the last treatment animals were euthenized by CO2 and the tumors, prostate, seminal vesicles and testes were removed and weighed. In Table 4, average tumor growth is determined from the corrected group means over a 35 day period after treatment was started. […] The animals eliminated from the calculation of the corrected means were in Figure 6, animals 8, 9, 10; in Figure 7, animals 18, 19 and 20; in Figure 8, animals 27, 28, 29 and 30; and in Figure 9, animals 37, 39 and 40. The castrated controls in Figure 10 present a different problem. Here it is believed that the different tumor volumes observed throughout the group is attributable to the different sizes at the beginning of the study. Since the mean variance here is clearly attributable to factors other than the effect of the castration itself, animals 47, 48, 49 and 50 were deleted from the corrected mean. Of these, animal 47 died during the treatment period.
Table 4 indicates the average daily growth rate, measured from the corrected mean tumor size on day 35 and day 0, comparing MDL 105831 and flutamide (MDL 15910), a known androgen receptor antagonist. […]

A further experiment relates to PC-82 Human Tumor. As to the kind of experiment: PC-82 human tumor growth in nude mice. Type of experiment: in vivo, male nude mice. The note with it: MDL 103432 and MDL 105831 50 mg/kg B.I.D., MDL 15910 15 mg/kg B.I.D., per os. An excerpt:
As described in van Steenbrugge, G.J. et al., J. Urol 131: 812-817 (1984) van Steenbrugge G.J. et al., The Prostate 11: 195-210 (1987) and Redding, T.W. et al., Cancer Research 52, 2538-2544 (1992), male nude mice (Hsd:athymic, Nude-nu) were obtained from Harlan Sprague Dawley. Mice were housed in sterilized micro-isolators and fed autoclaved ABLE® rodent chow (Purina Mills Inc., St. Louis, MO) and deionized water, adlibitum. Tumor-donating mice were first anesthetized using sodium pentobarbital and then sacrificed by cervical dislocation. The tumor was subsequently excised and placed in a petri dish containing ice-cold Hanks balanced salt solution. Tumors were cut into 2-3 mm cubes for implantation. Recipient animals were first anesthetized with 50 mg/kg pentobarbital, then implanted, by use of a trocar, with tumor fragments (one per mouse) in the dorsal area. Animals were separated into two control groups, one with vehicle alone and the other castrated, and the treatment groups, where n is the number of animals in each group.
Animals were selected for treatment groups based on tumor size. Each test compound was prepared as a solution or suspension in a lecithin vehicle (L-α-phosphatidylcholine type XV-E) containing methylparaben and propylparaben at a dose volume of 10 cc/kg. Animals were treated for 42 days by oral gavage (per os) seven days per week. Twenty-four hours after the last treatment the animals were euthenized by CO2 and tumors were removed and weighed. During the study period, mice were weighed and palpated weekly for tumors. In Table 5, average tumor growth is determined from the corrected group means over a 28 day period after treatment was started. […] The following animal data was deleted before computation of the corrected mean data in Table 5, Fig. 1: animals 4 and 44; Fig. 2: animals 10, 38 and 42; Fig. 3: Animal 39; Fig. 4: Animals 8, 9 and 49; Fig. 5: Animals 37 and 40 and 41.
Table 5 illustrates the average tumor growth in animals treated with 4-aza-17β-(cyclopropyloxy)-5α-androstan-3-one (MDL 103432; 50 mg/kg B.I.D.) 4-aza-17β-(cyclopropylamino)-androst-5(6)-en-3-one (MDL 105831; 50 mg/kg B.I.D.) and flutamide (MDL 15,910; 15 mg/kg B.I.D.), a known androgen receptor antagonist. The average growth rate of each tested compound relative to the vehicle and castrated controls is consistent with the in vivo inhibition of androgens.

In general, inhibition refers to the change of the read-out against control, counted positive when it falls. In the case of `CN1C(=O)CC[C@@]2(C)C1=CC[C@H]1[C@@H]3CC[C@H](OC4CC4)[C@@]3(C)CC[C@@H]12` (stereo in doubt) [MDL 104,313, 17β-Cyclopropyloxy-4-methyl-4-aza-androst-5-en-3-one], in experiment [1] (preincubation 0 min), the inhibition at 0.1 µM was -18.4%, the inhibition at 1 µM is 23.8% and the inhibition at 10 µM was 63.6%. Also, in experiment [1] (preincubation 40 min), the inhibition at 0.1 µM was -8.7%, the inhibition at 1 µM was found to be 39.9% and the inhibition at 10 µM is 70.2%.

Turning to `CC12C=CC(=O)N[C@@H]1CCC1C2CCC2(C)C1CC[C@@H]2OC1CC1` (stereo partly drawn) [MDL 103,129, 17β-Cyclopropyloxy-4-aza-5α-androst-1-en-3-one], in experiment [1] (preincubation 0 min), the inhibition at 0.1 µM came out at 6.4%, the inhibition at 1 µM is 40.7% and the inhibition at 10 µM came to 77.3%. Also, in experiment [1] (preincubation 40 min), the inhibition at 0.1 µM is 18.3%, the inhibition at 1 µM is 46.9% and the inhibition at 10 µM amounted to 84.3%.

As to `CC(C)C(=O)Nc1ccc([N+](=O)[O-])c(C(F)(F)F)c1` [MDL 15910, N-(3-Trifluoromethyl-4-nitro-phenyl)-isobutyramide, reference compound], in the experiment on Dunning H Tumor (Day 0 (baseline), corrected group mean), the “Tumor Growth in Dunning H Rat, Day 0” value stood at 317.00 mm^3. For the same compound, in the experiment with Dunning H Tumor (Day 7, corrected group mean), the “Tumor Growth in Dunning H Rat, Day 7” value is on record as 604.64 mm^3. The “Tumor Growth in Dunning H Rat, Day 16” value with Dunning H Tumor (Day 16, corrected group mean) is recorded as 877.86 mm^3. The “Tumor Growth in Dunning H Rat, Day 21” value with Dunning H Tumor (Day 21, corrected group mean) is 851.29 mm^3. Also, in the experiment with Dunning H Tumor (Day 29, corrected group mean), the “Tumor Growth in Dunning H Rat, Day 29” value is recorded as 1313.57 mm^3. The “Tumor Growth in Dunning H Rat, Day 35” value in the experiment on Dunning H Tumor (Day 35, corrected group mean) came to 1214.57 mm^3. In the experiment with Dunning H Tumor (average daily growth rate from corrected mean tumor size), the “Δv/Δt (day 35-day 0)” value was found to be 25.64 mm^3/day. Also, in the experiment with PC-82 Human Tumor (Day 7, corrected group mean), the “Tumor Growth in PC-82 Human Tumor in Male Nude Mice, Day 7” value is 222.7 mm^3. The “Tumor Growth in PC-82 Human Tumor in Male Nude Mice, Day 15” value in the experiment on PC-82 Human Tumor (Day 15, corrected group mean) is given as 262.9 mm^3. Further, the “Tumor Growth in PC-82 Human Tumor in Male Nude Mice, Day 21” value with PC-82 Human Tumor (Day 21, corrected group mean) was 319.7 mm^3. Further, the “Tumor Growth in PC-82 Human Tumor in Male Nude Mice, Day 28” value with PC-82 Human Tumor (Day 28, corrected group mean) worked out at 563.4 mm^3. Further, the “Tumor Growth in PC-82 Human Tumor in Male Nude Mice, Day 35” value in the experiment with PC-82 Human Tumor (Day 35, corrected group mean) is 479.3 mm^3. Also, the “Tumor Growth in PC-82 Human Tumor in Male Nude Mice, Day -4” value in the experiment on PC-82 Human Tumor (Day -4 (before treatment), corrected group mean) is on record as 138.7 mm^3. In addition, in the experiment with PC-82 Human Tumor (average tumor growth over 28 days from corrected group means), the “Δv/Δt (day 35-day 7)” value was 9.16 mm^3/day.
